Assay [1] has as its system bovine aortic endothelial cells (bAECs). Nature of the assay: Lysophosphatidylcholine or homocysteine/Cu2+ challenge of E2-pretreated cells, cell survival. Type of assay: cell-based. As to the method: Prior to E2 pretreatment, cells were grown in phenol red-free DMEM supplemented with 10% dextran/charcoal-stripped FBS for at least 1 passage (3-4 days). Phenol red-free Dulbecco's modified medium was used to avoid potential estrogenic interference. Serum steroid deprivation was conducted according to the conditions described by Yeh et al. (Proc. Natl. Acad. Sci. USA 95:5527-5532, 1998). The E2 level in the stripped serum was assayed using an [^125I] 17β-estradiol radioimmunoassay kit (TKE21, Diagnostic Products Corporation, Los Angeles, Calif.). […] The cells grown in E2-free environments were plated onto Falcon 24-well Primariae™ plates at a density of 5×10^4 cells/well. […]
Cell survival after oxidative challenge was assessed with a 3-(4,5-dimethylthiazol-2-yl) 2,5 diphenyltetrazolium bromide (MTT) assay in which the mitochondrial dehydrogenase activity of viable cells reduces MTT to a blue formazan product (Carmichael et al. Cancer Res. 47:936-942, 1987). […] Following cell lysis, the absorbency was measured at 570 nm and used as an indicator of relative cell survival. The surviving fraction was calculated as compared to the cells without paraquat challenge.

The subject of assay [2] is antioxidant enzymes (SOD, CAT, GPX, GR) in bAECs. Nature of the assay: Antioxidant enzyme (AOE) activities in cell lysates, all four enzymes together. Type of assay: cell-based, bovine. As for the experimental part: […] The cells were then lysed on ice by sonication at a setting of 50 mW, with 3×15 set cycles using a Cole-Parmer Ultrasonic Homogenizer (Chicago, Ill.). Protein concentrations in the samples were determined by the Bradford method with bovine serum albumin as a standard (Bradford, Anal. Biochem. 72:248-254, 1976).
(§1) SOD activity was determined by a method based on the ability of SOD to suppress epinephrine auto-oxidation (Misra and Fridovich, J.Biol. Chem. 247:3170-3175, 1972). One unit of SOD activity is defined as the amount of protein that inhibits the oxidation of epinephrine by 50%. Briefly, 100 μl of 10×-diluted cell homogenate (about 10 μg protein) was added to 900 μl of carbonate buffer (0.1 M NaHCO3, 0.1 M Na2CO3, 0.1 mM EDTA, pH 10.2) containing 0.7 mM of epinephrine. The absorbency of the mixture was measured for 4 minutes at 480 nm using a Hitachi U-2000 spectrophotometer (Hitachi, San Jose, Calif.).
CAT activity was determined by the method of Aebi (Methods Enzymol. 105:121,-126, 1984). One unit of CAT activity is defined as the amount of protein that degrades 1 μmole of H2O2 per minute. Initially, 10 μl of absolute ethanol was mixed with 100 μl of cell homogenates and pre-incubated at 4° C. for 30 minutes. Following the addition of 10 μl Triton X-100 (reduced form), a 100 μl aliquot (about 100 μg of protein) of the resultant mixture was next added to 500 μl of hydrogen peroxide (66 mM) and 400 μl of phosphate buffer (0.1 M NaH2PO4, 0.1 M Na2HPO4, 0.1 mM EDTA, pH 7.0). The absorbency of the mixture was monitored for one minute at 240 nm spectrophotometrically. The molar extinction coefficient of 43.6 M/cm was used to determine the catalase activity.
GPX activity was determined by a modified method of Flohe and Gunzler (Methods Enzymol. 105:114-121, 1984). One unit of GPX activity is defined as the amount of protein that oxidizes 1 nmole of β-NADPH per minute. In this assay, 100 μl of cell homogenate (about 100 μg protein) was added to 800 μl of phosphate buffer (0.1 M NaH2PO4, 0.1 M Na2HPO4, 0.1 mM EDTA, pH 7.0) containing 12.5 mM glutathione (reduced form, GSH), 0.2 mM β-nicotinamide adenine dinucleotide phosphate (reduced form, β-NADPH), and 0.34 U glutathione reductase. This mixture was pre-incubated at 37 C for 10 minutes and then 100 μl of 12 mM t-butyl hydroperoxide was added. The absorbency of the mixture was determined at 340 nm for 3 minutes. The molar extinction coefficient of 6.22 mM/cm was used to determine the activity of GPX.
GR activity was determined by a modified method of Carlberg and Mannervik (Methods Enzymol. 11 3:484-490, 1985). One unit of GR activity is defined as the amount of protein that oxidizes 1 nmole of β-NADPH per minute. Briefly, 50 μl of 2 mM β-NADPH in 10 mM Tris buffer (pH 7.0) was added to a cuvette containing 50 μl of 20 mM glutathione (oxidized ofrm, GSSG) in phosphate buffer (0.1 M NaH2PO4, 0.1 M Na2HPO4, 0.1 mM EDTA, pH 7.0) and 800 μl of phosphate buffer. Following the addition of cell homogenate (about 100 μg protein/100 μl) the final mixture was measured at 340 nm for 3 minutes. The molar extinction coefficient of 6.22 mM/cm was used to determine the activity of […].

Assay [3] concerns superoxide dismutase (SOD). Nature of the assay: SOD activity in cell lysate (epinephrine auto-oxidation). Type of assay: cell-based, bovine. As to the method:
Cells pretreated with different concentrations of E2 for 24 hours were harvested in a solution containing 50 mM Tris-HCl (pH 7.4), 1 mM EDTA, 2 μg/ml pepstatin A, 10 μg/ml benzamidine, and 10 μg/ml trypsin inhibitor. The cells were then lysed on ice by sonication at a setting of 50 mW, with 3×15 set cycles using a Cole-Parmer Ultrasonic Homogenizer (Chicago, Ill.). Protein concentrations in the samples were determined by the Bradford method with bovine serum albumin as a standard (Bradford, Anal. Biochem. 72:248-254, 1976).
as §1

A further assay relates to LDL. The note with it: 5-50 μM; oxidation by copper ions, monocytes, or endothelial cells; cited from earlier work.
For assay [4], the system named is endothelial nitric oxide synthase. The note with it: cited from earlier work.

Regarding `C[C@]12CC[C@@H]3c4ccc(O)cc4CC[C@H]3[C@@H]1CC[C@@H]2O` [E2, 17β-estradiol], the “survival after homocysteine/Cu2+ challenge” value in assay [1] (homocysteine/Cu2+ 1 mM/25 μM, 3 hours) is “gained survival benefit”. The “survival after lysophosphatidylcholine challenge” value in assay [1] (lysophosphatidylcholine 10 μg/ml, 60 min) is given as “gained survival benefit”. Moreover, in assay [2] (1 nM E2, 30 minutes), the “AOE activities after brief incubation” value is recorded as “did not affect the activities of AOEs”. Moreover, the “activities of the four antioxidant enzymes” value in assay [2] (1 nM-10 μM E2, 24 h) is reported as “significant increases in the activities of all four of the enzymes tested”. Moreover, the “E2 concentration of optimal AOE induction” value in assay [2] (24 h pretreatment) fell in the range of 1 to 10 nM. For the same compound, the AOE activities entry in assay [2] (female bAECs, 24 hour, 1 nM E2) was “significant elevation of all of the four AOE activities tested”; in assay [2] (male bAECs incubated with 1 nM E2) it was “not induced”. For the same compound, the “SOD activity elevation relative to untreated cells” value in assay [3] (1 nM E2 pretreatment (Example 8)) is “approximately 4 fold”. Also, the SOD activity increase entry in assay [3] (female bAECs, 24 h 1 nM E2 (Example 12)) is reported as “about 4 fold”. In addition, the “effect on LDL oxidation” value in the assay with LDL is listed as “inhibit LDL oxidation”. Also, the “optimal concentration of E2 for endothelial nitric oxide synthase induction” value in assay [4] was 1 to 10 nM.
